The target of this test is T1, F508delCFTR (Homo sapiens, UniProt P13569, DEL508-508).
T1 construct: expressed in transfected cells; host or cells: CFBE41o- (human lung derived epithelial cell line), doxycycline-inducible expression
Briefly: Cell Surface Expression-Horse Radish Peroxidase (CSE-HRP) assay. Particulars: CFBE41o-F508delCFTR-HRP cells; for Maximum % activity (with co-corrector): with co-corrector (2 μM); for Maximum % activity (with co-corrector) / Maximum % activity (without co-corrector): normalized to on-plate positive control, highest concentration 20 μM. It counts as cell-based. An outline of the steps:
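CFBE41o- cells expressed F508delCFTR with HRP in the fourth exofacial loop, induced by 0.5 μg/mL doxycycline for 72 h at 37 °C. Compounds alone or with 2 μM co-corrector ran 18–24 h at 33 °C, 8-point 3-fold from 20 μM. Washed-cell luminol luminescence was normalized to DMSO and positive control, fitted sigmoidally for EC50 (three plates).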

The mark [1] stands for this setting: test compound without co-corrector, 18-24 hours at 33° C., read-out: EC50 (without co-corrector).
[2] abbreviates: with co-corrector (2 μM of 3-[(2R,4R)-4-({[1-(2,2-difluoro-1,3-benzodioxol-5-yl)cyclopropyl]carbonyl}amino)-7-methoxy-3,4-dihydro-2H-chromen-2-yl]benzoic acid), read-out: EC50 (with co-corrector).

Each structure is given as a SMILES string. Like-named read-outs stand apart in the source and are kept apart here.

T1 sequence (P13569 with tags, fused parts or gaps DEL508-508): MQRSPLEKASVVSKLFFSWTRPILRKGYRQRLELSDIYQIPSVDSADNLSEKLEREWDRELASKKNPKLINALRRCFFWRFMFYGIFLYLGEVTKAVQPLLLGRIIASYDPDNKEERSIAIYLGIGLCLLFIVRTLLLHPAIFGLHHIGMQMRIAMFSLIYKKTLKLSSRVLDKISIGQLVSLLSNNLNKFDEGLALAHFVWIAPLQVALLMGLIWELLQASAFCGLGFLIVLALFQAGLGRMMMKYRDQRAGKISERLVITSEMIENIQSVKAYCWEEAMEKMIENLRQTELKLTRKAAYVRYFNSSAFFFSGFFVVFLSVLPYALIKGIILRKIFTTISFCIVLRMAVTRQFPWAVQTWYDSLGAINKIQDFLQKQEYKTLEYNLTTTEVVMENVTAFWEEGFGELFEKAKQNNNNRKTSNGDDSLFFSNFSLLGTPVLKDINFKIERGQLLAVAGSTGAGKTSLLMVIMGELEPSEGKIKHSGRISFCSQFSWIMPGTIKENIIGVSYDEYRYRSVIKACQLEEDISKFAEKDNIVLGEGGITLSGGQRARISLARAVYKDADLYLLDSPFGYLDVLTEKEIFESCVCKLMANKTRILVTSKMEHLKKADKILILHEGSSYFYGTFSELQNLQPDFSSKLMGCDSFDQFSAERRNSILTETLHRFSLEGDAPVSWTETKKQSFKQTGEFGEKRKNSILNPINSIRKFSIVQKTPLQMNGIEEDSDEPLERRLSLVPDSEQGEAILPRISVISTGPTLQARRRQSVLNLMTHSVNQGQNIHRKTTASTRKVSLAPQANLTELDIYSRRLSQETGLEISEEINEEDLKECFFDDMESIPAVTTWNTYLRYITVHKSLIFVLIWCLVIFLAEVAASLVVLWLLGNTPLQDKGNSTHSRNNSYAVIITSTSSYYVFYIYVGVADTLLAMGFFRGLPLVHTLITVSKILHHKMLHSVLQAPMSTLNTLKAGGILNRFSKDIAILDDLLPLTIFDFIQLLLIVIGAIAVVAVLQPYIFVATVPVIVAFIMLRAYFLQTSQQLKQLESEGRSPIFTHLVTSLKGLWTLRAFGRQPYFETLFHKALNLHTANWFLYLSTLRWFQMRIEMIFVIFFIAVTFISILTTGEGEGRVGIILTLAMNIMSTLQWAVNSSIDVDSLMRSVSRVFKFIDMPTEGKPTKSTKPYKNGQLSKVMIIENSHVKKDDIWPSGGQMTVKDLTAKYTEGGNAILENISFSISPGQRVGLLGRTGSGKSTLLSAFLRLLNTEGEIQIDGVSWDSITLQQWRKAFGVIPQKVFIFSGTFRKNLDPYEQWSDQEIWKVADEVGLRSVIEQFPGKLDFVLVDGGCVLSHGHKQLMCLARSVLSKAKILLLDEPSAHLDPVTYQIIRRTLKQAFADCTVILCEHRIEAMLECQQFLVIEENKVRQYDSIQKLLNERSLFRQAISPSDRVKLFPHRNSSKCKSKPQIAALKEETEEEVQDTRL

What is called EC50 is the concentration at which the effect is half-maximal. On to `COc1ccc(C(F)(F)F)cc1[C@@](O)(CO)CO[C@H]1[C@H](C(C)(C)C)[C@@H](C(=O)O)N(C(=O)[C@@H]2CCCCO2)[C@H]1c1ccccc1C` [Example 263, (2S,3R,4S,5S)-3-tert-butyl-4-{(2R)-2,3-dihydroxy-2-[2-methoxy-5-(trifluoromethyl)phenyl]propoxy}-5-(2-methylphenyl)-1-[(2S)-oxane-2-carbonyl]pyrrolidine-2-carboxylic acid], for which the “Maximum % activity (with co-corrector)” value was “++ (≥150 and <350)”; the “Maximum % activity (without co-corrector)” value is on record as “+ (<100)”. Under setting [1], the EC50 is over 10000 nM. In addition, the EC50 under setting [2] lay within 1000 to 10000 nM.

In the case of `COc1nc(C(C)(C)C)ccc1CO[C@H]1[C@H](C(C)(C)C)[C@@H](C(=O)O)N(C(=O)[C@@H]2CCCCO2)[C@H]1c1ccccc1C` [Example 221, (2S,3R,4S,5S)-3-tert-butyl-4-[(6-tert-butyl-2-methoxypyridin-3-yl)methoxy]-5-(2-methylphenyl)-1-[(2S)-oxane-2-carbonyl]pyrrolidine-2-carboxylic acid], the “Maximum % activity (with co-corrector)” value is recorded as “+++ (≥350)” and the “Maximum % activity (without co-corrector)” value is reported as “+++ (≥200)”. Further, the EC50 under setting [1] was 1000 to 10000 nM. Also, under setting [2], the concentration for a half-maximal effect (EC50) fell in the range of 1000 to 10000 nM.

For `COc1ccc(C(F)(F)F)cc1CO[C@H]1[C@H](C(C)(C)C)[C@@H](C(=O)NS(=O)(=O)C2(C)CC2)N(C(=O)C2CCCCC2)[C@H]1c1ccccc1` [Example 22, (2S,3R,4S,5S)-3-tert-butyl-1-(cyclohexanecarbonyl)-4-{[2-methoxy-5-(trifluoromethyl)phenyl]methoxy}-N-(1-methylcyclopropane-1-sulfonyl)-5-phenylpyrrolidine-2-carboxamide], the “Maximum % activity (with co-corrector)” value was “+ (<150)” and the “Maximum % activity (without co-corrector)” value is “+ (<100)”. Moreover, the EC50 under setting [1] is over 10000 nM. The EC50 under setting [2] was over 10000 nM.

On to `[2H]C([2H])(O[C@H]1[C@H](C(C)(C)C)[C@@H](C(=O)O)N(C(=O)[C@@H]2CCCCO2)[C@H]1c1ccccc1C)c1cc(C(C)(C)C)ccc1OC` [Example 235, (2S,3R,4S,5S)-3-tert-butyl-4-{[(5-tert-butyl-2-methoxyphenyl)(^2H2)methyl]oxy}-5-(2-methylphenyl)-1-[(2S)-oxane-2-carbonyl]pyrrolidine-2-carboxylic acid], for which the “Maximum % activity (with co-corrector)” value is reported as “+++ (≥350)” and the “Maximum % activity (without co-corrector)” value was “+++ (≥200)”. In addition, the EC50 under setting [1] is under 1000 nM. Moreover, the EC50 under setting [2] is under 1000 nM.

For `COc1ncc(C2CCCC2)cc1CO[C@H]1[C@H](C(C)(C)C)[C@@H](C(=O)O)N(C(=O)OC(C)C)[C@H]1c1ccccc1` [Example 44, (2S,3R,4S,5S)-3-tert-butyl-4-[(5-cyclopentyl-2-methoxypyridin-3-yl)methoxy]-5-phenyl-1-{[(propan-2-yl)oxy]carbonyl}pyrrolidine-2-carboxylic acid], the “Maximum % activity (with co-corrector)” value is recorded as “+++ (≥350)” and the “Maximum % activity (without co-corrector)” value is on record as “+ (<100)”. Besides, under setting [1], the EC50 is 1000 to 10000 nM. In addition, under setting [2], the EC50 is 1000 to 10000 nM.

Consider `COc1nc2ccccc2cc1CO[C@H]1[C@H](C(C)(C)C)[C@@H](C(=O)O)N(C(=O)[C@@H]2CCCCO2)[C@H]1c1ccccc1C` [Example 189, (2S,3R,4S,5S)-3-tert-butyl-4-[(2-methoxyquinolin-3-yl)methoxy]-5-(2-methylphenyl)-1-[(2S)-oxane-2-carbonyl]pyrrolidine-2-carboxylic acid], for which the “Maximum % activity (with co-corrector)” value is recorded as “+++ (≥350)” and the “Maximum % activity (without co-corrector)” value was “+++ (≥200)”. Besides, the EC50 under setting [1] fell in the range of 1000 to 10000 nM. For the same compound, under setting [2], the EC50 lay in the range of 1000 to 10000 nM.

In the case of `COc1ncc(C(F)(F)F)cc1CO[C@H]1[C@H](C(C)(C)C)[C@@H](C(=O)O)N(C(=O)[C@@H]2CCCO2)[C@H]1c1ccccc1C(C)C` [Example 98, (2S,3R,4S,5S)-3-tert-butyl-4-{[2-methoxy-5-(trifluoromethyl)pyridin-3-yl]methoxy}-1-[(2S)-oxolane-2-carbonyl]-5-[2-(propan-2-yl)phenyl]pyrrolidine-2-carboxylic acid], the “Maximum % activity (with co-corrector)” value is listed as “+++ (≥350)”; the “Maximum % activity (without co-corrector)” value was “++ (≥100 and <200)”. Besides, the EC50 under setting [1] is under 1000 nM. For the same compound, the EC50 under setting [2] is under 1000 nM.

For `COc1ccc(C(F)(F)F)cc1CO[C@@H]1[C@@H](C(C)(C)C)[C@H](C(=O)O)N(C(=O)N(C(C)C)C(C)C)[C@@H]1c1ccccc1` (single isomer, unassigned) [Example 8, (2R*,3S*,4R*,5R*)-3-tert-butyl-1-[di(propan-2-yl)carbamoyl]-4-{[2-methoxy-5-(trifluoromethyl)phenyl]methoxy}-5-phenylpyrrolidine-2-carboxylic acid], the “Maximum % activity (with co-corrector)” value was “+ (<150)” and the “Maximum % activity (without co-corrector)” value is listed as “+ (<100)”. Besides, the EC50 under setting [1] is over 10000 nM. For the same compound, the EC50 under setting [2] was over 10000 nM.

As to `COc1ccccc1[C@H]1[C@@H](OCc2cc(C(C)(C)C)cnc2OC)[C@H](C(C)(C)C)[C@@H](C(=O)O)N1C(=O)[C@@H]1CCCCO1` [Example 241, (2S,3R,4S,5S)-3-tert-butyl-4-[(5-tert-butyl-2-methoxypyridin-3-yl)methoxy]-5-(2-methoxyphenyl)-1-[(2S)-oxane-2-carbonyl]pyrrolidine-2-carboxylic acid], the “Maximum % activity (with co-corrector)” value is “+++ (≥350)” and the “Maximum % activity (without co-corrector)” value is reported as “+++ (≥200)”. In addition, the EC50 under setting [1] was 1000 to 10000 nM. Also, the EC50 under setting [2] was under 1000 nM.

Turning to `COc1ncc(C2CCC2)cc1CO[C@H]1[C@H](C(C)(C)C)[C@@H](C(=O)O)N(C(=O)[C@@H]2CCCCO2)[C@H]1c1ccccc1C(C)C` [Example 176, (2S,3R,4S,5S)-3-tert-butyl-4-[(5-cyclobutyl-2-methoxypyridin-3-yl)methoxy]-1-[(2S)-oxane-2-carbonyl]-5-[2-(propan-2-yl)phenyl]pyrrolidine-2-carboxylic acid], the “Maximum % activity (with co-corrector)” value was “+++ (≥350)” and the “Maximum % activity (without co-corrector)” value is “+++ (≥200)”. Besides, the EC50 under setting [1] is 1000 to 10000 nM. Under setting [2], the EC50 is under 1000 nM.

For `COc1ccccc1[C@H]1[C@@H](OCc2cc(C(F)(F)F)cnc2OC)[C@H](C(C)(C)C)[C@@H](C(=O)O)N1C(=O)[C@@H]1CCCCO1` [Example 240, (2S,3R,4S,5S)-3-tert-butyl-5-(2-methoxyphenyl)-4-{[2-methoxy-5-(trifluoromethyl)pyridin-3-yl]methoxy}-1-[(2S)-oxane-2-carbonyl]pyrrolidine-2-carboxylic acid], the “Maximum % activity (with co-corrector)” value is “+++ (≥350)”; the “Maximum % activity (without co-corrector)” value is “++ (≥100 and <200)”. Further, under setting [1], the EC50 was in the range of 1000 to 10000 nM. In addition, the EC50 under setting [2] is under 1000 nM.

Take `COc1ncc(-c2ccc(C)cc2F)cc1CO[C@H]1[C@H](C(C)(C)C)[C@@H](C(=O)O)N(C(=O)OC(C)C)[C@H]1c1ccccc1` [Example 65, (2S,3R,4S,5S)-3-tert-butyl-4-{[5-(2-fluoro-4-methylphenyl)-2-methoxypyridin-3-yl]methoxy}-5-phenyl-1-{[(propan-2-yl)oxy]carbonyl}pyrrolidine-2-carboxylic acid]: the “Maximum % activity (with co-corrector)” value is on record as “+++ (≥350)” and the “Maximum % activity (without co-corrector)” value is “+ (<100)”. The EC50 under setting [1] is under 1000 nM. For the same compound, under setting [2], the EC50 was under 1000 nM.

Take `COc1ncc(C2CCC2)cc1CO[C@H]1[C@H](C(C)(C)C)[C@@H](C(=O)O)N(C(=O)OC(C)C)[C@H]1c1ccccc1F` [Example 77, (2S,3R,4S,5S)-3-tert-butyl-4-[(5-cyclobutyl-2-methoxypyridin-3-yl)methoxy]-5-(2-fluorophenyl)-1-{[(propan-2-yl)oxy]carbonyl}pyrrolidine-2-carboxylic acid]: the “Maximum % activity (with co-corrector)” value was “+++ (≥350)”; the “Maximum % activity (without co-corrector)” value was “++ (≥100 and <200)”. Under setting [1], the EC50 fell in the range of 1000 to 10000 nM. Under setting [2], the EC50 lay in the range of 1000 to 10000 nM.

Turning to `COc1ccc(-c2ccccc2)cc1CO[C@H]1[C@H](C(C)(C)C)[C@@H](C(=O)O)N(C(=O)OC(C)C)[C@H]1c1ccccc1` [Example 38, (2S,3R,4S,5S)-3-tert-butyl-4-[(4-methoxy[1,1′-biphenyl]-3-yl)methoxy]-5-phenyl-1-{[(propan-2-yl)oxy]carbonyl}pyrrolidine-2-carboxylic acid], the “Maximum % activity (with co-corrector)” value is “+++ (≥350)”; the “Maximum % activity (without co-corrector)” value was “++ (≥100 and <200)”. In addition, the EC50 under setting [1] lay within 1000 to 10000 nM. Also, under setting [2], the half-maximal effective concentration (EC50) lay in the range of 1000 to 10000 nM.

Turning to `COc1ccc(C(F)(F)F)cc1CO[C@H]1[C@H](C(C)(C)C)[C@@H](C(=O)O)N(C(=O)[C@@H]2CCC[C@@H](OC)C2)[C@H]1c1ccccc1` [Example 31, (2S,3R,4S,5S)-3-tert-butyl-1-[(1R,3R)-3-methoxycyclohexane-1-carbonyl]-4-{[2-methoxy-5-(trifluoromethyl)phenyl]methoxy}-5-phenylpyrrolidine-2-carboxylic acid], the “Maximum % activity (with co-corrector)” value was “+++ (≥350)” and the “Maximum % activity (without co-corrector)” value was “+++ (≥200)”. For the same compound, the EC50 under setting [1] is 1000 to 10000 nM. In addition, the EC50 under setting [2] was under 1000 nM.

For the origin of these results see US10399940B2, “Substituted pyrrolidines and methods of use” (AbbVie S.à.r.l., priority 2016, dated 2019).
